The nature of this data set: Waters SunFire C18, 150 × 2.1 mm, 3.5 µm, 35 °C, 0.3 mL/min, estimated dead time 1.1 min; A: water + 0.1% formic acid; B: acetonitrile + 0.1% formic acid; gradient (min/%B) 0/20 5/20 20/50 25/100. To be noted: stereoisomer not certain.

Each structure is given as a SMILES string.

As to `CCN(CC)CCOC(=O)C(Cc1cccc2ccccc12)CC1CCCO1` (centres undefined), the LC retention time is 11.1 min.

As to `CC12C=CC(=O)C=C1CCC1C2C(O)CC2(C)C1CCC2(O)C(=O)CO` (centres undefined), the LC retention time was 12.3 min.

Regarding `CCC1(c2ccccc2)C(=O)NC(=O)NC1=O`, the LC retention time was 4.9 min.

In the case of `CCCCC1C(=O)N(c2ccccc2)N(c2ccc(O)cc2)C1=O` (centres undefined), the LC retention time is 19.8 min.

As for `COc1ccccc1OCC(O)COC(N)=O` (centres undefined), the LC retention time is 6.4 min.

On to `CCOC(=O)C1(c2ccccc2)CCN(C)CC1`, for which the LC retention time was 2.2 min.

Regarding `C=CCC1(O)CCC2C3CCC4=CC(=O)CCC4=C3C=CC21C` (centres undefined), the LC retention time was 22.1 min.

`CN1CC(O)c2cc(N=NC(N)=O)c(O)cc21` (centres undefined): the LC retention time was 1.7 min.

Regarding `CC(C(=O)O)c1cccc(C(=O)c2ccccc2)c1` (centres undefined), the LC retention time is 19.3 min.

Consider `N=C1NC(=O)C(c2ccccc2)O1` (centres undefined), for which the LC retention time is 3.4 min.

Take `O=C1NC(=O)C(c2ccccc2)(c2ccccc2)N1`: the LC retention time was 14.7 min.

Turning to `CCCC(Cc1ccccc1)N1CCCC1` (centres undefined), the LC retention time is 2.9 min.

Consider `O=C1CN(N=Cc2ccc(-c3ccc([N+](=O)[O-])cc3)o2)C(=O)N1`, for which the LC retention time was 15.5 min.

For `CCC1(c2ccccc2)C(=O)NCNC1=O`, the LC retention time is 4.3 min.

For `CCCCN1CCCCC1C(=O)Nc1c(C)cccc1C` (centres undefined), the LC retention time was 2.9 min.

Consider `Oc1ccc2c(c1)C13CCCCC1(O)C(C2)N(CC1CCC1)CC3` (centres undefined), for which the LC retention time was 2.5 min.

As for `COc1ccc(CN(CCN(C)C)c2ccccn2)cc1`, the LC retention time is 2 min.

Regarding `CC12C=CC(=O)C=C1CCC1C2C(=O)CC2(C)C1CCC2(O)C(=O)CO` (centres undefined), the LC retention time is 12.4 min.

Regarding `CCCC1OC2CC3C4CCC5=CC(=O)C=CC5(C)C4C(O)CC3(C)C2(C(=O)CO)O1` (centres undefined), the LC retention time was 20.1 min.

As to `CC(=O)N=c1sc(S(N)(=O)=O)nn1C`, the LC retention time is 3.5 min.

Turning to `CCC1(c2cnc[nH]2)Cc2ccccc2C1`, the LC retention time is 3 min.

In the case of `CN1C(C(=O)Nc2ccccn2)=C(O)c2sccc2S1(=O)=O`, the LC retention time was 9 min.

On to `CN(C)CCC=C1c2ccccc2CCc2ccccc21`, for which the LC retention time was 10.3 min.

Regarding `CN1CCOC(c2ccccc2)c2ccccc2C1` (centres undefined), the LC retention time was 2.9 min.

Take `COc1ccc(CCN(C)CCCC(C#N)(c2ccc(OC)c(OC)c2)C(C)C)cc1OC` (centres undefined): the LC retention time was 10.6 min.

`CC1CC2C(C(O)CC3(C)C2CCC3(O)C(=O)CO)C2(C)C=CC(=O)C=C12` (centres undefined): the LC retention time was 14.6 min.

`CC12CCC(=O)C=C1CCC1C2C(O)CC2(C)C1CCC2(O)C(=O)CO` (centres undefined): the LC retention time was 12.6 min.

On to `CC[N+]1(C)CCCC(OC(=O)C(O)(c2ccccc2)c2ccccc2)C1` (centres undefined), for which the LC retention time is 3.4 min.

For the compound `CCOC(=O)c1ccc(N)cc1`, the LC retention time was 12.3 min.

Regarding `CCCC[N+]1(C)C2CC(OC(=O)C(CO)c3ccccc3)CC1C1OC12` (centres undefined), the LC retention time is 2.3 min.

As to `Cn1c(=O)c2c(ncn2CC(=O)O)n(C)c1=O`, the LC retention time is 2.42 min.

Turning to `CCCCNc1cc(C(=O)O)cc(S(N)(=O)=O)c1Oc1ccccc1`, the LC retention time is 20.7 min.

In the case of `CS(=O)(=O)Nc1ccc([N+](=O)[O-])cc1Oc1ccccc1`, the LC retention time is 21.9 min.

Consider `CCCCCCCCC(=O)NCc1ccc(O)c(OC)c1`, for which the LC retention time is 22.4 min.

For `COc1cc(CNC(=O)CCCCC=CC(C)C)ccc1O`, the LC retention time is 22.6 min.

As for `CC(=O)c1ccc2c(c1)N(CCCN(C)C)c1ccccc1S2`, the LC retention time is 8.7 min.

On to `CC12CCC(=O)C=C1C=CC1C2CCC2(C)C1CCC21CCC(=O)O1` (centres undefined), for which the LC retention time was 22 min.

Take `Cc1c(NC=O)c(=O)n(-c2ccccc2)n1C`: the LC retention time is 2.6 min.

Take `O=C1NC(=O)N(N=Cc2ccc(-c3ccc([N+](=O)[O-])cc3)o2)C1O` (centres undefined): the LC retention time is 15.2 min.
